Assay results reported in patent publication US20160166532A1, “CARNITINE PALMITOYLTRANSFERASE 1 INHIBITORS FOR INHIBITION OF PATHOLOGICAL ANGIOGENESIS” (VIB VZW, priority 2013, published 2016).
Where two headings read alike, the source gives them in different places.

How the values were obtained:
[1] = system: endothelial cells (ECs); experiment: 3H palmitate oxidation assay (fatty acid oxidation, 3H-9,10-palmitic acid tracer); type: cell-based
From the text: (§1) CPT1 enzymes are rate limiting for fatty acid oxidation and, of the three isoforms, CPTla is the most abundant in ECs. To explore the functional relevance of CPT1a in ECs, its expression was compared in quiescent versus angiogenic EC monolayers. Strikingly, CPT1a RNA and protein levels were increased during contact inhibition—an in vitro model of quiescence—when compared to proliferating/migrating ECs. […] To correlate these expression levels to functional relevance, fatty acid oxidation was measured using a ^3H-9,10-palmitic acid tracer. […] To confirm that fatty acid oxidation in ECs is primarily CPT1a driven, its expression was blocked using a shRNA directed against CPT1a. The shRNA sequence used was 5′-[…] […]-3′ (SEQ ID NO:1).
(§2) Even more, using notch signaling as a model of quiescence, the notch-induced increase in FAO was abrogated upon CPT1a KD.

[2] = target: T1, CPT1a (Homo sapiens, UniProt P50416); experiment: CPT1a protein levels after shRNA knock down in ECs; type: cell-based
T1 construct: of the three isoforms, CPTla is the most abundant in ECs; endogenous in cells; host or cells: endothelial cells (ECs)
T1 sequence (P50416 1-773): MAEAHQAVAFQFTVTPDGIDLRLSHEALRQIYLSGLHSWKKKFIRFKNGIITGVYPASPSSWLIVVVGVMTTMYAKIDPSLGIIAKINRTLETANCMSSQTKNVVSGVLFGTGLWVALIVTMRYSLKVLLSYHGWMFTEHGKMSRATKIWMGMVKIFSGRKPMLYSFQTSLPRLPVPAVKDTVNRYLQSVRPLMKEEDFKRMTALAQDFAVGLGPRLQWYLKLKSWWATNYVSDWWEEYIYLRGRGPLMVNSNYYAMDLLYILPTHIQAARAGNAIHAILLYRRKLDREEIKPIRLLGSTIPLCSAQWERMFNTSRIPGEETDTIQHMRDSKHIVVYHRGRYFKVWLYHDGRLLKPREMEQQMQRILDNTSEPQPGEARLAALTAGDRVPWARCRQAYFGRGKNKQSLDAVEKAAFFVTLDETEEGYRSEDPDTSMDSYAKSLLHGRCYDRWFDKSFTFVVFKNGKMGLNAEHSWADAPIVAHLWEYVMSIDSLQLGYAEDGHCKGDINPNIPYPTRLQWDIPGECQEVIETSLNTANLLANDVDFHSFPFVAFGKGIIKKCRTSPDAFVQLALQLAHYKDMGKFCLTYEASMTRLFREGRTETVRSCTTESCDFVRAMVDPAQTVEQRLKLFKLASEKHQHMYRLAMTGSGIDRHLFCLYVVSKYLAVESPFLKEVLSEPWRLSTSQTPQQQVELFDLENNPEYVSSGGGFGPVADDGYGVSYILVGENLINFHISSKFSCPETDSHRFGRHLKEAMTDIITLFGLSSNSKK
From the text: as §1, §2

[3] = system: angiogenic EC monolayers; experiment: 3H thymidine incorporation assay (EC proliferation); type: cell-based
From the text: (§3) In angiogenic EC monolayers, CPT1a knock down (KD) reduced EC proliferation by 40% as measured by ^3H thymidine incorporation (see FIG. 2). Furthermore, CPT1a KD EC were found more frequently in the G0/G1 phase of the cell cycle. EC migration on the other hand was not affected as measured by scratch wound assay and modified Boyden chamber even when proliferation was blocked using mitomycin C (see FIG. 3). To study the effect of CPT1a KD on vessel sprouting, an in vitro EC spheroid sprouting assay was employed. In this model, EC are cultured in suspension to form spheroids in hanging drops, embedded in a collagen I matrix and subsequently stimulated with growth factors to allow sprouts to be formed. In this model, a tip cell with filopodia leads the sprout while the stalk cells trail behind and proliferate to elongate the sprout. […] To further investigate this observation, a mosaic spheroid model was employed to assess tip cell competition. Here, 50% WT^RED and 50% WT^GFP cells are mixed and, when the spheroids have sprouted, which one is at the tip is determined. In this model, tip cell position can be determined via migration and/or proliferation. In case of a WT/WT mixture, 50% green and 50% red cells are at the tip. However, when 50% WT^RED cells are mixed with 50% CPT1a^KD/GFP cells, less green cells were present at the tip. […]

[4] = system: ECs; experiment: Scratch wound assay and modified Boyden chamber (EC migration); type: cell-based; details: scratch wound assay, modified Boyden chamber
From the text: as §3

[5] = system: EC spheroids; experiment: In vitro EC spheroid sprouting assay; type: cell-based
From the text: In angiogenic EC monolayers, CPT1a knock down (KD) reduced EC proliferation by 40% as measured by ^3H thymidine incorporation (see FIG. 2). Furthermore, CPT1a KD EC were found more frequently in the G0/G1 phase of the cell cycle. EC migration on the other hand was not affected as measured by scratch wound assay and modified Boyden chamber even when proliferation was blocked using mitomycin C (see FIG. 3). To study the effect of CPT1a KD on vessel sprouting, an in vitro EC spheroid sprouting assay was employed. In this model, EC are cultured in suspension to form spheroids in hanging drops, embedded in a collagen I matrix and subsequently stimulated with growth factors to allow sprouts to be formed. In this model, a tip cell with filopodia leads the sprout while the stalk cells trail behind and proliferate to elongate the sprout. […] To further investigate this observation, a mosaic spheroid model was employed to assess tip cell competition. Here, 50% WT^RED and 50% WT^GFP cells are mixed and, when the spheroids have sprouted, which one is at the tip is determined. In this model, tip cell position can be determined via migration and/or proliferation. In case of a WT/WT mixture, 50% green and 50% red cells are at the tip. However, when 50% WT^RED cells are mixed with 50% CPT1a^KD/GFP cells, less green cells were present at the tip. This effect was abrogated when spheroids were treated with mitomycin C.

[6] = system: ECs; experiment: Energy charge, ATP levels and AMPK phosphorylation in ECs; type: cell-based
From the text: Next, how fatty acid oxidation could exert its proliferation-dependent effects on vessel sprouting was questioned. Through fueling the TCA with […] molecules of acetyl-COA, 1 palmitate can generate much more ATP via oxidative phosphorylation compared to 1 glucose. However, as was shown previously, angiogenic ECs rely primarily on glycolysis for ATP production. Nevertheless, it was desired to rule out that the CPT1a-induced proliferation defect was caused by ATP depletion. […] One would also expect that whenever cells are in ATP distress, they would up-regulate a major ATP-producing pathway. […] Furthermore, no signs of energy distress were observed, as shown by AMPK-p, and no induction of autophagy was observed as measured by LC3.

[7] = system: ECs; experiment: Intracellular H2O2 levels in ECs; type: cell-based
From the text: Proliferation requires many building blocks such as protein, RNA, DNA, . . . to allow duplication of one cell into two daughter cells. Up until now, the role of mitochondria in ECs was thought to be for signaling purposes and not so much for biomass production, as ECs are highly glycolytic. […] FAO can fuel the TCA cycle with […] molecules of acetyl COA, thereby providing plenty of intermediates for biomass as well as producing NADPH that can be used for anti-oxidant defense or lipid synthesis. […] However, this increase in ROS could not explain the proliferation defect as no DNA damage checkpoint was activated in these cells as measured by ATM-P, p53 and p21 levels. […] Therefore, it was hypothesized that blocking FAO would reduce TCA intermediates needed for biomass production. Even more, using ^13C palmitate, it was shown that CPT1a KD cells incorporate less 13C label in TCA intermediates and in biomass.

[8] = Palmitate uptake and incorporation in organs; type: in vivo, mice; details: pups
[9] = Tolerability in etomoxir-treated pups (body weight, heart H&E staining); type: in vivo, mice
[10] = system: choroidal neovascularization (CNV) in male C57BL/6 mice; experiment: Laser-induced choroidal neovascularization (CNV) model; type: in vivo; details: 35 mg/kg i.p. daily, two weeks, vs vehicle
From the text: The protein extravasation and hemorrhage associated with choroidal neovascularization (CNV) are primary causes of severe vision loss in retinal diseases such as age-related macular degeneration (ARMD). In ARMD the normal barrier function of Bruch's membrane is compromised, and CNV can develop, either under the retinal pigment epithelium (RPE) or photoreceptor outer segments. The choroidal neovascularization model serves as a reliable disease model for macular degeneration. Choroidal neovascularization (CNV) is induced in mice by laser burn. Laser burn (400 mW) is performed with Alcon PUREPOINT® equipment. CNV is measured by investigators masked to treatment. Eyes are enucleated after retrobulbar perfusion with FITC-dextran (HMW) and flat mounted. The CNV area, total lesion area, and their ratio are analyzed using Zeiss Axio Imager Z1 microscope with macros (KS300 image analysis software) on FITC-perfused (200 μL; 25 mg/mL; 10 minutes) flat mounts. The intraocular administration of siRNAs directed against CPT1a or the use of chemical inhibitors against CPT1a, is carried out, prior to or shortly after the induction of the laser burn, in the above-described murine model for age-related macular degeneration. […]

Molecule: shCPT1a: shRNA directed against CPT1a, SEQ ID NO:1: 5'-CCGGGCCATGAAGCTCTTAGACAAACTCGAGTTTGTCTAAGAGCTTCATGGCTTTTTG-3'
- fatty acid oxidation [1]: reduced fatty acid oxidation
- fatty acid oxidation ([1]; listed as shRNA directed against CPT1a): significantly reduced
- CPT1a protein levels [2]: nearly undetectable levels
- proliferation (in words) [3]: reduced proliferation
- reduction of EC proliferation ([3]; angiogenic EC monolayers): 40%
- EC migration [4]: no differences in migration
- EC migration ([4]; listed as CPT1a KD): not affected
- vessel sprouting of EC spheroids ([5]; collagen I matrix, growth factor stimulated): fewer and shorter sprouts
- ATP distress (Western blot for AMPK phosphorylation) [6]: does not show any ATP distress
- energy charge [6]: did not affect
- increase in intracellular H2O2 levels [7]: 40%

Molecule: CCOC(=O)[C@@]1(CCCCCCOc2ccc(Cl)cc2)CO1 [etomoxir]
- 14C palmitate uptake in organs [8]: significantly reduced
- incorporation of 13C palmitate in TCA intermediates in organs [8]: significantly reduced
- defects in the heart (H&E staining) [9]: did not cause any defects in the heart
- reduction of neovascularization area [10]: less than 50%
- pathological neovascular area (in words) ([10]; p<0.05): reduced the pathological neovascular area

Molecule: CC(=O)N[C@@H](CS)C(=O)O [NAC]
- rescue of reduced sprouting upon CPT1a silencing in quiescent spheroids ([5]; NICD overexpression model of quiescence): did rescue the phenotype

Molecule: CC(=O)O [acetate]
- rescue of reduced sprouting of CPT1a knock down spheroids ([5]; 20 mM supplementation): rescued
